Reference: patent US4510139A, “Substituted aminobenzamides and their use as agents which inhibit lipoxygenase activity” (Sterling Drug Inc., priority 1984, dated 1985)
Read-outs that look alike come from different tables or passages of the source.

Legend:
cyclooxygenase = target: T1, cyclooxygenase (Rattus norvegicus, UniProt Q63921); experiment: Inhibition of cyclooxygenase derived from rat basophilic leukemia (RBL-1) cells, product C1 (PGD2); format: biochemical
T1 construct: microsomal fraction containing lipoxygenase and cyclooxygenase; endogenous in cells; host or cells: RBL-1 (rat basophilic leukemia) cells, homogenate / microsomal fraction
T1 sequence (Q63921 27-602): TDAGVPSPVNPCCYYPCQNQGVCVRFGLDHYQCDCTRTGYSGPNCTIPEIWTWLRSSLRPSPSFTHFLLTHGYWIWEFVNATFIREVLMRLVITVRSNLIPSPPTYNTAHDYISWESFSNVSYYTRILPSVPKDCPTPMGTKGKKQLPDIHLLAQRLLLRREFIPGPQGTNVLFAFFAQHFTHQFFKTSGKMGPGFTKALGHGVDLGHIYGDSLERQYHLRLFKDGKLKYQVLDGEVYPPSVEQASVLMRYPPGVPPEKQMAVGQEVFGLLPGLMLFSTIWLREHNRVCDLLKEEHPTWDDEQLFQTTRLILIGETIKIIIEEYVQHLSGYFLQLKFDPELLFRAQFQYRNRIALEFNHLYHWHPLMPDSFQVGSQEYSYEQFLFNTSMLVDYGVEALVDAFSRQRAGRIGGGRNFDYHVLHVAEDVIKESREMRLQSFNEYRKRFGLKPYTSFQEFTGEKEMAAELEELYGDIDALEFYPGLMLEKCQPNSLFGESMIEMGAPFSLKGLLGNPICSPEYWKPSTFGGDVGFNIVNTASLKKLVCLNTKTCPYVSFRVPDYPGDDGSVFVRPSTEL
Experimental: (§1) The primary screening test used is a determination of the inhibition of lipoxygenase and cyclooxygenase derived from rat basophilic leukemia (RBL-1) cells. The test was carried out according to the following procedure:
(§2) Single cell suspensions of RBL-1 cells are homogenized to obtain the microsomal fraction containing lipoxygenase and cyclooxygenase. Test compounds are added to the enzyme-containing homogenate for a 5 min preincubation period at 37° C. prior to the addition of ^14 C-arachidonic acid substrate. Following incubation at 37° C. for 15 min, the reaction is stopped by the addition of 2M formic acid and the enzyme-substrate products are extracted into chloroform. An aliquot of the extract is evaporated to dryness, reconstituted in ether to 1/10 original volume, spotted in thin layer chromatography plates and chromatographed. The peak areas of radioactivity representing the products are located by scanning the plates. The quantity of products formed is estimated by measuring the height of the radioactivity peaks observed on the chromatographic scans. Alternatively, the areas of radioactivity are scraped from the plate and the ^14 C quantitated by scintillation counting.

lipoxygenase = target: T2, lipoxygenase (Rattus norvegicus, UniProt P12527); experiment: Inhibition of lipoxygenase derived from rat basophilic leukemia (RBL-1) cells, products L1 (5,12-di-HETE) and L2 (5-HETE); format: biochemical
T2 construct: microsomal fraction containing lipoxygenase and cyclooxygenase; endogenous in cells; host or cells: RBL-1 (rat basophilic leukemia) cells, homogenate / microsomal fraction
T2 sequence (P12527 1-673): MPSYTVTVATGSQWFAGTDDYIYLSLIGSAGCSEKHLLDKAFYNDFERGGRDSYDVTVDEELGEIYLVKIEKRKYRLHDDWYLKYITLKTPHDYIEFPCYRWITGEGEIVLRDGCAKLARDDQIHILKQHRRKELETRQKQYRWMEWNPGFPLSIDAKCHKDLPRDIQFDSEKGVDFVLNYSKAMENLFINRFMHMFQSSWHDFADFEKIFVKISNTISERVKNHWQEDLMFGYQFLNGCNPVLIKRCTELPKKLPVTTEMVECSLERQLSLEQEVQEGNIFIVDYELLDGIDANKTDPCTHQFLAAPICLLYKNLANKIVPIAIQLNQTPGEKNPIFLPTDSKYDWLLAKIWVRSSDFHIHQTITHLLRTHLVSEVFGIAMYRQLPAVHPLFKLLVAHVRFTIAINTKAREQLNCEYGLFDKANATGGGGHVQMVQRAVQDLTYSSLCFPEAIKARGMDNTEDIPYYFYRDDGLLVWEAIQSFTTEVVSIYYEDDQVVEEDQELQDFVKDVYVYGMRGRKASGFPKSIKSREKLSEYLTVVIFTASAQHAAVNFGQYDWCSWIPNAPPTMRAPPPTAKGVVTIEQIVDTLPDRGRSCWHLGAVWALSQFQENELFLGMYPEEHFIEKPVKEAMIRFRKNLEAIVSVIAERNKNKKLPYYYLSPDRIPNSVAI
Experimental: as §1, §2

[1] = test system: SRS-A component of immunologically induced broncho-constriction; experiment: Effect on the SRS-A component of immunologically induced broncho-constriction in guinea pigs; format: in vivo; settings: Cavia porcellus; guinea pig, intravenous; read-out: ED50 (effective dose in 50% of the animals)
Experimental: The test was carried out according to the following procedure:
Two weeks after immunization with egg albumin, guinea pigs are prepared for bronchoconstriction determination. One hour prior to antigen challenge, each animal is dosed orally with indomethacin and chlorpheniramine. Animals are anesthetized with sodium pentobarbital, the trachea cannulated and the animal artifically respired. Arachidonic acid is administered intravenously prior to antigen challenge. The resulting bronchoconstriction is recorded by the standard lung overflow procedure and the peak increase in intratracheal pressure (mm Hg) over a 10 minute observation period is recorded. Compounds are evaluated for their ability to prevent the increased intratracheal pressure in an experimental group of animals as compared to the medicated (indomethacin+chlorpheniramine+arachidonic acid) control group. The results are expressed in terms of percent inhibition or as ED50 values (effective dose in 50% of the animals).

O=C(NCc1ccccc1)c1ccccc1Nc1ccc(O)cc1 [Example 11(b), 2-(4-Hydroxyphenylamino)-N-benzylbenzamide]
IC50 (cyclooxygenase): > 1000 nM | inhibition at 1 µM (cyclooxygenase; dose of 1 μM, read-out: % Inhibition of cyclooxygenase (C1) formation): 0% | IC50 (lipoxygenase; IC50 L1, L1 = 5,12-di-HETE): 70 nM | IC50 (lipoxygenase; IC50 L2, L2 = 5-HETE): 40 nM | inhibition at 1 µM (lipoxygenase; read-out: % Inhibition of lipoxygenase (L1) formation): 87% | inhibition at 1 µM (lipoxygenase; read-out: % Inhibition of lipoxygenase (L2) formation): 96% | ED50 [1]: 0.61 mg/kg
